{"source": "patent US20100108086A1", "about": "“TOBACCO AND TOBACCO PACKAGING MATERIAL FOR PREVENTING OR REDUCING TOBACCO-ASSOCIATED INJURY IN THE AERODIGESTIVE TRACT OF A SUBJECT” (Technion Research & Development Foundation Ltd, priority 2007, published 2010)", "key": {"lymphocytes [1]": {"test_system": "lymphocytes", "test": "Lymphocyte survival, Trypan Blue exclusion assay", "format": "cell-based, human", "conditions": "for death rates at 80 minutes / lymphocyte survival rates after 20 minutes: both, human; for % survival of TS + saliva-treated lymphocytes, Mean: 1 mM GSH", "protocol": "Saliva collection: Saliva was collected from healthy subjects, 3 males and 3 females ranging from 21-47 years of age, under non-stimulatory conditions in a quiet room during the morning between 8 am and noon. Saliva collection was performed at least 1 h after eating by spitting into a recipient for 10 minutes, as previously described (43). Following collection, saliva was immediately centrifuged at 800×g for 10 min at 4° C. to remove cells and cell debris and the resulting supernatant was used for biochemical analyses.\n(§1) Lymphocyte isolation: Blood from 10 consenting, healthy, non-smoking subjects, 5 males and 5 females ranging from 18-55 years of age, was drawn into EDTA-containing vacutainers. Lymphocytes were isolated by Ficoll-Hypaque (Sigma) gradient centrifugation according to the manufacturer's instructions and lymphocytes were suspended at 10^7 cells/ml PBS (Beit-Ha'emek Industries, Israel), and used immediately in experiments.\n(§2) A reproducible vacuum was created in the flask and upon application of vacuum for 5 s, 80-100 ml of TS from the lit cigarette was drawn into the flask. […] Saliva treatment of lymphocytes was performed by suspending these in PBS supplemented with 30% (v/v) saliva. Following treatment with the TS of 0.5 cigarettes, flasks were incubated at 37° C. for 20 min in a metabolic shaker and subjected to a further 4 treatments with TS, as described above.\nMeasurement of lymphocyte survival: Lymphocyte viability was assessed by Trypan Blue exclusion assay."}, "oral peroxidase (OPO)": {"test_system": "oral peroxidase (OPO)", "test": "Oral peroxidase (OPO) activity in saliva, NBS-SCN assay", "format": "biochemical, human", "conditions": "for OPO activity in presence of aldehydes present in TS: 80 μM acrolein, 20 μM crotonaldehyde (FIG. 11)"}, "lymphocytes [2]": {"test_system": "lymphocytes", "test": "Western immunoblotting analysis of lymphocyte protein carbonylation", "format": "cell-based, human", "text": "Western immunoblotting analysis of protein carbonylation: Salivary proteins were separated by SDS-PAGE using a 10% gel and electro-blotted onto nitrocellulose membranes, as previously described (14). The Oxyblot Kit (Intergen Co, Purchase N.Y.) was used with anti-dinitrophenyhydrazine (DNPH) antibodies to label carbonylated proteins. Protein carbonylation levels were then visualized by reacting labelled blots with a secondary HRP-conjugated anti-rabbit antibody followed by ECL detection of secondarily labelled proteins, as previously described (14).\nas §1\nas §2, with “Treatment of lymphocytes with TS in the presence of saliva: Exposure of lymphocytes to TS was carried out by attaching a Time cigarette (capable of removing particles>[…] in diameter) in which the filter tip was removed to a Cambridge filter which was combined with a vacuum system to aspirate gas-phase TS inside sealed 250 ml flasks containing lymphocytes suspended in 12-15 ml PBS, as previously described (14, 15). A” for “A”\nWestern immunoblotting analysis of lymphocyte protein carbonylation: Lymphocytes were washed twice in PBS following treatment by centrifugation at 2,000 rpm for 2 minutes to remove saliva and other components of the incubation medium. Lymphocytes were then centrifuged at 14,000 rpm for 1 minute and lysed by sonication for 10 seconds in lysis buffer containing 20 mM Tris pH 7.4, 1 mM EGTA, 1 mM PMSF, 50 μM NaVO4 and 50 mM NaF. Lysates were centrifuged at 14,000 rpm for 1 minute and supernatants were harvested for analysis. Carbonylation analysis was performed as described above."}, "MPO": {"biological_target": "T1, MPO (Homo sapiens, UniProt P05164)", "T1 construct": "purchased", "T1 sequence (P05164 49-745)": "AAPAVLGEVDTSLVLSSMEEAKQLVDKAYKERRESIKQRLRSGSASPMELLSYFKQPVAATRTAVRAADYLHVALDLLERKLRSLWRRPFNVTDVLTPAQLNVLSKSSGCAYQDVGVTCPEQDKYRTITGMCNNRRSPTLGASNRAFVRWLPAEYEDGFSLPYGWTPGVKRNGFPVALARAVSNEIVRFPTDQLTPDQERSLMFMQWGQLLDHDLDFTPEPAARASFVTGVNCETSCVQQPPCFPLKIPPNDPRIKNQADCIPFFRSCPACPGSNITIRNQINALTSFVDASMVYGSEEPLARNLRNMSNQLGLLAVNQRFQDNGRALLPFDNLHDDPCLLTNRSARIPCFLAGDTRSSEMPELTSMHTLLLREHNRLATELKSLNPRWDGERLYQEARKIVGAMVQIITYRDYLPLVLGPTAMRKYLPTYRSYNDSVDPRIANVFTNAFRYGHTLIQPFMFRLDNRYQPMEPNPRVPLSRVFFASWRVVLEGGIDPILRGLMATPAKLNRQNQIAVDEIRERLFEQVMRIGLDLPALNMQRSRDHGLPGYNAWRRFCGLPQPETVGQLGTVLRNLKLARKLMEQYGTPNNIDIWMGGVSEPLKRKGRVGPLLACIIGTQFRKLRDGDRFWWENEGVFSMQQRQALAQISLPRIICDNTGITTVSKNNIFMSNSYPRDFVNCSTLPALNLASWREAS", "test": "Control MPO activity (commercial MPO) in presence of dapsone", "format": "biochemical", "conditions": "150 μM dapsone", "protocol": "FIG. 7 is a data plot depicting the effect of increasing concentrations of dapsone (4-aminophenylsulfone) on OPO activity in TS-treated saliva. Abbreviations: NO.1, NO.2, NO.3, NO4 and NO.5 correspond to saliva from 5 different subjects and plasma corresponds to commercial MPO.\nAnalysis of OPO activity: OPO activity was measured according to the 2-nitrobenzoic-thiocyanate (NBS-SCN) assay, as previously described (20). Briefly, DTNB is reduced to NBS by addition of β-mercaptoethanol and decreases in NBS concentration by reaction with OSCN^−, a product of OPO, are monitored spectrophotometrically by measuring absorbance at 412 nm at pH 5.6 (18). One unit of enzyme activity was defined as the activity required to cleave 1 μmol of NBS/min at 22° C., using a molar extinction coefficient of 12,800 (20).\nThus, in order to determine which of the MPO or SPO activity components of OPO activity are lost as a result of exposure to TS, OPO activity in TS-treated saliva was measured in the presence of increasing concentrations of […] dapsone."}, "[3]": {"conditions": "TS + saliva, 1 mM agent, 80 minutes (FIG. 19)"}}}
{"smiles": "CC=O", "note": "[acetaldehyde]", "values": [{"measurement": "death rates at 80 minutes", "setting": "lymphocytes [1]", "result": 92.7, "unit": "%"}]}
{"smiles": "C/C=C/C=O", "note": "[crotonaldehyde]", "values": [{"measurement": "death rates at 80 minutes", "setting": "lymphocytes [1]", "result": 75.3, "unit": "%"}, {"measurement": "lymphocyte survival rates after 20 minutes", "setting": "lymphocytes [1]", "result": 80.3, "unit": "%"}, {"measurement": "OPO activity in presence of aldehydes present in TS", "setting": "oral peroxidase (OPO)", "result": "unaffected"}]}
{"smiles": "N#C[S-].[K+]", "note": "[KSCN, potassium thiocyanate]", "values": [{"measurement": "protection against TS-induced loss of OPO activity", "setting": "oral peroxidase (OPO)", "result": "significant protection against loss of OPO activity"}]}
{"smiles": "O=c1[nH]c(=O)c2[nH]c(=O)[nH]c2[nH]1", "note": "[uric acid]", "values": [{"measurement": "lymphocyte protein carbonylation levels", "setting": "lymphocytes [2]; uric acid added to suspension medium instead of saliva, 10 or 100 μM, no TS (FIG. 18)", "result": "reduced carbonylation levels"}]}
{"smiles": "N[C@@H](CCC(=O)N[C@@H](CS)C(=O)NCC(=O)O)C(=O)O", "note": "[GSH, L-γ-glutamyl-1-cysteine-glycine]", "values": [{"measurement": "effect on death rate of lymphocytes exposed to TS and saliva", "setting": "lymphocytes [1]", "result": "partially prevented"}, {"measurement": "% survival of TS + saliva-treated lymphocytes, Mean", "setting": "lymphocytes [1]; 20 minute treatment", "result": 90.6, "unit": "%"}, {"measurement": "% survival of TS + saliva-treated lymphocytes, Mean", "setting": "lymphocytes [1]; 80 minute treatment", "result": 28.8, "unit": "%"}, {"measurement": "lymphocyte survival rate", "setting": "lymphocytes [1]; GSH added in the presence of 20 μM crotonaldehyde, 20 minutes", "result": 82.3, "unit": "%"}, {"measurement": "lymphocyte survival rate", "setting": "lymphocytes [1]; GSH added in the presence of 20 μM crotonaldehyde, 80 minutes", "result": 81.3, "unit": "%"}, {"measurement": "lymphocyte survival rate", "setting": "lymphocytes [1]; GSH added in the presence of 80 μM acrolein, 20 minutes", "result": 93.3, "unit": "%"}, {"measurement": "lymphocyte survival rate", "setting": "lymphocytes [1]; GSH added in the presence of 80 μM acrolein, 80 minutes", "result": 87.4, "unit": "%"}, {"measurement": "lymphocyte survival rate", "setting": "lymphocytes [1]; GSH added in the presence of 2 mM acetaldehyde, 20 minutes", "result": 93.3, "unit": "%"}, {"measurement": "lymphocyte survival rate", "setting": "lymphocytes [1]; GSH added in the presence of 2 mM acetaldehyde, 80 minutes", "result": 93.6, "unit": "%"}, {"measurement": "lymphocyte survival rate", "setting": "lymphocytes [1]; TS + saliva, 1 mM agent, 20 minutes (FIG. 19)", "result": 93.4, "unit": "%"}, {"measurement": "lymphocyte survival rate", "setting": "lymphocytes [1]; [3]", "result": 24.3, "unit": "%"}, {"measurement": "protection assessed by lymphocyte protein carbonylation levels", "setting": "lymphocytes [2]; TS + saliva, 1 mM antioxidant, 20 minutes (FIG. 20)", "result": "unique protection"}, {"measurement": "protein carbonylation levels in aldehyde-treated lymphocytes", "setting": "lymphocytes [2]; aldehydes + 1 mM GSH, 20 min (FIG. 21)", "result": "protection"}, {"measurement": "loss of OPO activity in TS-treated saliva in the presence or absence of agent", "setting": "oral peroxidase (OPO); 1 mM agent (FIG. 9)", "result": "similar"}]}
{"smiles": "[Cl][Fe]([Cl])[Cl]", "note": "[FeCl3]", "values": [{"measurement": "inhibition of OPO activity on exposure of saliva", "setting": "oral peroxidase (OPO); 1 mM ascorbate or 100 μM FeCl3, 2 h (FIG. 10)", "result": "did not inhibit OPO activity"}]}
{"smiles": "C/C1=C2/[N-][C@H]([C@H](CC(N)=O)[C@@]2(C)CCC(=O)NC[C@@H](C)OP(=O)([O-])O[C@H]2[C@@H](O)[C@@H](n3cnc4cc(C)c(C)cc43)O[C@@H]2CO)[C@]2(C)N=C(/C(C)=C3N=C(/C=C4N=C1[C@@H](CCC(N)=O)C\\4(C)C)[C@@H](CCC(N)=O)[C@]\\3(C)CC(N)=O)[C@@H](CCC(N)=O)[C@]2(C)CC(N)=O.[Co+3].[OH-]", "note": "[OH—CO, hydroxocobalamin]", "values": [{"measurement": "prevention of KCN-associated loss of OPO activity", "setting": "oral peroxidase (OPO); 1 mM OH—CO, saliva treated 2 min with 1 mM KCN (FIG. 15)", "result": "completely prevent"}, {"measurement": "prevention of loss of OPO activity in TS-treated saliva", "setting": "oral peroxidase (OPO); increasing amounts of OH—CO (0.5, 1, 2 mM, FIG. 14), 40 min after treatment with TS", "result": "prevent, to a significant extent, the loss of OPO activity"}, {"measurement": "prevention of TS- and KCN-associated loss of OPO activity", "setting": "oral peroxidase (OPO); preincubation of saliva with OH—CO", "result": "could prevent both TS- and KCN-associated loss of OPO activity"}]}
{"smiles": "O=C1O[C@H]([C@@H](O)CO)C(O)=C1O", "note": "[ascorbate]", "values": [{"measurement": "lymphocyte survival rate", "setting": "lymphocytes [1]; ascorbate (1 mM) added to PBS containing iron as FeCl3 (90 μM), no saliva (FIG. 23, Column 8)", "result": 77, "unit": "%"}, {"measurement": "lymphocyte survival rate", "setting": "lymphocytes [1]; ascorbate (1 mM) added to saliva-containing medium without TS, 20 min (FIG. 23, column 6)", "result": 78, "unit": "%"}]}
{"smiles": "CC(=O)N(O)CCCCCNC(=O)CCC(=O)N(O)CCCCCNC(=O)CCC(=O)N(O)CCCCCN", "note": "[deferoxamine]", "values": [{"measurement": "lymphocyte survival rate", "setting": "lymphocytes [1]; [3]", "result": 23.7, "unit": "%"}]}
{"smiles": "Nc1ccc(S(=O)(=O)c2ccc(N)cc2)cc1", "note": "[dapsone, 4-aminophenylsulfone]", "values": [{"measurement": "control MPO activity", "setting": "MPO", "result": "unaffected"}, {"measurement": "Loss of OPO activity", "setting": "oral peroxidase (OPO); 150 μM dapsone, TS-treated saliva (FIG. 7)", "result": "60-85%"}, {"measurement": "loss of OPO activity in the presence or absence of agent", "setting": "oral peroxidase (OPO); 150 μM dapsone, TS-treated saliva containing ~40% MPO (FIG. 8)", "result": "similar"}]}
{"smiles": "CC(=O)N[C@@H](CS)C(=O)O", "note": "[NAC, N-acetylcysteine]", "values": [{"measurement": "effect on death rate of lymphocytes exposed to TS and saliva", "setting": "lymphocytes [1]", "result": "did not alter the death rate"}]}
{"smiles": "C=CC=O", "note": "[acrolein]", "values": [{"measurement": "lymphocyte survival rate", "setting": "lymphocytes [1]; acrolein with saliva (second of the two 'respectively' values, order presumed)", "result": 66.4, "unit": "%"}, {"measurement": "lymphocyte survival rate", "setting": "lymphocytes [1]; acrolein without saliva (first of the two 'respectively' values, order presumed)", "result": 57.9, "unit": "%"}, {"measurement": "death rates at 80 minutes", "setting": "lymphocytes [1]", "result": 57.3, "unit": "%"}, {"measurement": "lymphocyte survival rates after 20 minutes", "setting": "lymphocytes [1]", "result": 63.3, "unit": "%"}, {"measurement": "lymphocyte protein carbonylation levels", "setting": "lymphocytes [2]; 80 μM acrolein + saliva vs acrolein alone, 20 min (FIG. 22)", "result": "did not enhance carbonylation levels"}, {"measurement": "OPO activity in presence of aldehydes present in TS", "setting": "oral peroxidase (OPO)", "result": "unaffected"}]}
